Experimental findings from patent US20240254119A1 (THIRD HARMONIC BIO, INC., priority 2022, published 2024) are described below.

Each structure is given as a SMILES string.

The target of series [1] is T1, wtKIT (Homo sapiens, UniProt P10721).
T1 construct: 1888289AM in the reaction mixtures
The series is described as follows: Caliper biochemical assay, wtKIT. The following applies: Table 6, read-out: KIT Biochemical IC50 avg. The essentials:
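Mobility-shift read-out: after EDTA stop, fluorescent peptide substrate and product resolved electrophoretically on LabChip 3000. Reaction ran 3 h at 25° C with 400 μM ATP, Mn^2+ cofactor, 5.0 nM wtKIT, 1 μM FAM-peptide, pH 7.5 HEPES buffer; no-enzyme wells defined full inhibition.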

The target of series [2] is T2, CSF-1R (Homo sapiens, UniProt P07333).
T2 construct: purchased Invitrogen PV3249 (lot 662393N)
The series is described as follows: Caliper biochemical assay, CSF-1R. The following applies: Table 6. The essentials: (§1)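 Mobility-shift readout: after EDTA quench, fluorescent peptide and product are resolved electrophoretically on a LabChip and measured by fluorescence. Reactions contain enzyme, carboxyfluorescein peptide, ATP, Mn^2+ and compound, run 3 h at 25° C; 100% inhibition control lacks enzyme.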

Series [3] concerns the target T3, PDGFRα (Homo sapiens, UniProt P16234).
T3 construct: purchased Millipore 14-467 (lot 26321_ACTI)
In words: Caliper biochemical assay, PDGFRα. The conditions noted are these: Table 6. The essentials: as §1

The subject of series [4] is KIT phosphorylation in M-07e cells. In words: Cell-based KIT phosphorylation in M-07e cells by pKIT ELISA. Details: species or system human. The following applies: SCF stimulation. The procedure: Exemplary compounds were tested for ability to inhibit KIT phosphorylation using M-07e cells as monitored by pKIT ELISA. M-07e cells are also represented as M-07E, M-07e, M07-e, M07e, Mo7e, MO7e, M07E and MO7E. Assay procedures and results are described below.
Part I—Procedures for Determining KIT Inhibition inM-07e Cells Using pKTT ELISA Reagents and consumables: • M-07e cells: Initially obtained from Accegen, cat #ABC-TC1313 • p-cKIT Capture ELISA antibody: anti-Human Phospho-CD117/c-kit, R&D cat #DYC3527-5 • Anti-pY-HIRP antibody: R&D cat #DYC3527-5 • 25× wash buffer: Quantikine ELISA Wash Buffer 1, R&D cat #WA126 • PBS: R&D cat #DY006 • 96 well ELISA plates: Clear Polystyrene Microplates, R&D Cat #DY990 • 96 well Tissue culture plates: Corning® 96 Well TC-Treated Microplates, cat #CLS3894 • RPMI medium: ATCC® RPMI-1640 Medium, Cat #30-2001 • FBS: Fetal Bovine Serum, certified, United States Gibco, Thermo-Fisher 16000044 • GM-CSF: Recombinant Human GM-CSF Protein, R&D cat #215-GM • SCF: Recombinant Human SCF Protein, R&D cat #255-SC
• 1. Prepare cells: • a. Culture M-07e cells in RPMI medium+20% serum+GM-CSF+penstrep • To make 50 mL of growth medium • i. 40 mL RPMI media • ii. 10 mL FBS • iii. 10 uL of GM-CSF (100 ug/mL stock) • iv. 0.5 mL pen strep (100×) • b. Harvest cells • c. Re-suspend cells in 100% RPMI media (without serum) to final concentration of 1 million cells/mL • d. Transfer 100 uL of cell solution to 11 columns of a 96 well flat bottom cell culture plate • e. Incubate cells over night at 37 C • 2. Prepare ELISA Plates: • a. Dilute capture antibody to concentration 4 ug/mL in PBS • b. Coat 96 well microplates with 100 uL of capture antibody • c. Seal plates and incubate at RT overnight • d. Wash plates with 300 uL of wash buffer • e. Repeat wash • f. Treat plates with 300 uL of blocking buffer at RT for 1 hour • 3. Addition of compounds: • a. Prepare compound dilutions in RPMI media • i. Top test concentration is 1 uM • ii. Serially dilute compounds 3× for a total of 8 concentrations • b. Add 10 uL of 10× compound dilutions to cells • i. No compounds added in column 11 (for controls) • c. Incubate cells with compounds for 2 hours at 37 C • d. Stimulate cells with SCF for 5 min at concentration of 100 ng/mL (final) • i. In column 11 stimulate top 4 wells. Leave bottom 4 wells unstimulated • e. Remove cell culture media with multichannel pipet • f. Add 110 uL of Lysis buffer to all wells • g. Incubate plates at RT for 30 min while shaking • 4. Transfer 100 uL of cell lysis to each prepared Elisa plate • 5. Add 100 uL of the standard pc-KIT dilutions to the standard wells in column 12 • a. Top concentration=2000 pg/mL • b. 2× dilutions • 6. Incubate ELISA plate with cell lysate for 2 hours at RT • 7. Wash Plate with wash buffer (wash 1) • 8. Repeat wash (wash 2) • 9. […] Add 100 uL of diluted anti-pY-HRP (1/1000 dilution in detection antibody dilution buffer) and incubate 2 hours at RT • 11. Wash plate with wash buffer (wash 1) • 12. Repeat wash (wash 2) • 13. Repeat wash (wash 3) • 14. Add 100 uL of substrate solution to each well • 15. Incubate plates 20 min • Note: Plate development is indicated by aqua color • 16. Add 50 uL of stop solution to each well • 17. Determine optical density on Bitek Synergy Neo2: • a. Make new experiment
Select absorbance 1 set to 450 nm
A general note: An ELISA detects its analyte on a solid surface through an enzyme-linked reagent.

Series [5] in a line: Kinetic solubility assay. Type of series: physicochemical. The conditions noted are these: kinetic solubility, 50 mM PB (pH 7.4), shaken 24 hours at RT. The essentials:
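Concentration in the filtrate was determined by UPLC-UV or HPLC-UV with a standard curve. Before that, compound (10 mM DMSO stock) in 50 mM PB at pH 7.4 was agitated 24 h at room temperature, then PTFE-filtered with centrifugation.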

Series [6] has as its target T1, wtKIT. The series is described as follows: HTRF biochemical assay, wtKIT (phosphorylation of a peptide substrate). The following applies: Table 4. The method in brief:
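HTRF read-out of FAM-peptide (1 µM) phosphorylation after anti-phosphotyrosine antibody addition and EDTA quench. Reaction: 5.0 nM wtKIT, 400 µM ATP, 10 mM Mn2+, HEPES pH 7.5, 1% DMSO, 3 h, 25 °C; optional enzyme-compound preincubation; enzyme level set for 10-20% conversion.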

Series [7] has as its target T2, CSF-1R. The series is described as follows: HTRF biochemical assay, CSF-1R. The conditions noted are these: Table 4. How it is done:
(§2) Exemplary compounds were tested for ability to inhibit the phosphorylation of a peptide substrate by the tyrosine kinase wt KIT, PDGFRα, or CSF-1R. Assay procedures and results are described below.
(§3) Enzyme, substrate, and cofactors (ATP and Mn^2+) are combined in a well of a microtiter plate and incubated for 3 hours at 25° C. At the end of the incubation, the reaction is quenched by the addition of an EDTA-containing buffer.
(§4) The substrate used in the CSF-1R and PDGFRα assay is FAM-[…]-CONH2 (FAM is carboxyfluorescein). Peptide should be >95% purity. The substrate for the KIT assay is FAM-[…]-NH2.
(§5) • 1. To a well of a 384-wellplate add 5 μL of 2× enzyme buffer (or control). • 2. Add 100 nL of 100× compound. Enzyme and compound may be pre-incubated at this time if desired. • 3. Add 5 μL of 2× substrate buffer. • 4. Incubate plate at 25° C. for 3 hours. • 5. Add 10 uL of anti-phosphotyrosine antibody buffer. • 6. Read plate in BioTek Synergy Reader. Reaction Conditions for wtKIT Assay
For orientation: Time-resolved FRET reads energy transfer from a long-lived donor to a nearby acceptor.

For series [8], the target named is T3, PDGFRα. The series is described as follows: HTRF biochemical assay, PDGFRα. The conditions noted are these: Table 4, read-out: PDFGRα Biochemical IC50 avg. How it is done: as §2, §3, §4, §5

For orientation: IC50 means the concentration that gives 50% inhibition.

T1 sequence (P10721 26-976): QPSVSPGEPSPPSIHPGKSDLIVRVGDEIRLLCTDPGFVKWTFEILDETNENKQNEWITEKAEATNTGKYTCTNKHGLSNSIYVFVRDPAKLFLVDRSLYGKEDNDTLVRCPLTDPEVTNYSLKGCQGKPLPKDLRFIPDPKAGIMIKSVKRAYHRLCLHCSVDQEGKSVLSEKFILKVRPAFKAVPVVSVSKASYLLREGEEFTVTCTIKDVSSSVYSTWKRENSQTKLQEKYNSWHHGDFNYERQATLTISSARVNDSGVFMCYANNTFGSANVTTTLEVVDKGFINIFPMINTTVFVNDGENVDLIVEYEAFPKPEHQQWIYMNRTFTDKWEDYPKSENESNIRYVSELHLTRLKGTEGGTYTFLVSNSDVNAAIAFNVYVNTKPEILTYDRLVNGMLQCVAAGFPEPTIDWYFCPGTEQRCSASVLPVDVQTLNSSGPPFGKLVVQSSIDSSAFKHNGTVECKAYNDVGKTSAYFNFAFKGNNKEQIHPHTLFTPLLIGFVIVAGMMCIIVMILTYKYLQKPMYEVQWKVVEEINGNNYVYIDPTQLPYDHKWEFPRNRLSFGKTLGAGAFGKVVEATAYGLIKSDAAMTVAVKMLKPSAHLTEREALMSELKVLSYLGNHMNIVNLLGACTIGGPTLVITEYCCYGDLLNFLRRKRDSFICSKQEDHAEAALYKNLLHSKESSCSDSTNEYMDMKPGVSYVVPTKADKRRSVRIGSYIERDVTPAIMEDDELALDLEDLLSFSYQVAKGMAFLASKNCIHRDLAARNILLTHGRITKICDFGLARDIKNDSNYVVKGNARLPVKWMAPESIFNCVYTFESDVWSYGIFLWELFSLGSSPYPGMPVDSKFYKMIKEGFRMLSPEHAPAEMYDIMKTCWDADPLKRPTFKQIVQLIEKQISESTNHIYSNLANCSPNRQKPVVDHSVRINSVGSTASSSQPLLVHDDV
T2 sequence (P07333 20-972): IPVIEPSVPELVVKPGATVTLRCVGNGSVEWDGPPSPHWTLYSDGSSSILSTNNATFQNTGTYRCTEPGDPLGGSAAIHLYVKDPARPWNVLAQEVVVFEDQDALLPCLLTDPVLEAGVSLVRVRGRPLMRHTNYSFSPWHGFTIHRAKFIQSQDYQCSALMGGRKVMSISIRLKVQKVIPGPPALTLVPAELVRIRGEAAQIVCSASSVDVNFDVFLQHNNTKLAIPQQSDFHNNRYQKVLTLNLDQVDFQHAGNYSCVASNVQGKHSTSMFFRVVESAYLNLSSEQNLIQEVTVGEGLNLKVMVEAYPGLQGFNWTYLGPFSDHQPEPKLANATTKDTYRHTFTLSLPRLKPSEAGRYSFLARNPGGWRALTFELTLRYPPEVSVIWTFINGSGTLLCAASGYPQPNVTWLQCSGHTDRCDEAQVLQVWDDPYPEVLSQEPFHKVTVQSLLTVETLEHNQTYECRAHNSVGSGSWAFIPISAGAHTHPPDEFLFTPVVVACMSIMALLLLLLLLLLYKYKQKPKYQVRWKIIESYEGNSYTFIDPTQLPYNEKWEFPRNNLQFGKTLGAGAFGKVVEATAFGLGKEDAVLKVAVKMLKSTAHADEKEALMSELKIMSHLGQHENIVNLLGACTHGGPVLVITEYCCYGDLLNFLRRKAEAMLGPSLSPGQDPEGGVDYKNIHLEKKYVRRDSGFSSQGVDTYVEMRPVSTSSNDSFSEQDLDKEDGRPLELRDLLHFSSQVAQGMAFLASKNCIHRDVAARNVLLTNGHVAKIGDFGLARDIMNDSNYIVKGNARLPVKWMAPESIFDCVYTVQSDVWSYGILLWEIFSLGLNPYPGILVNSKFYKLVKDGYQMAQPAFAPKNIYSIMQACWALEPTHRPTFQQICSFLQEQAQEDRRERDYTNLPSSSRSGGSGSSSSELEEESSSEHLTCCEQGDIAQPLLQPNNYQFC
T3 sequence (P16234 24-1089): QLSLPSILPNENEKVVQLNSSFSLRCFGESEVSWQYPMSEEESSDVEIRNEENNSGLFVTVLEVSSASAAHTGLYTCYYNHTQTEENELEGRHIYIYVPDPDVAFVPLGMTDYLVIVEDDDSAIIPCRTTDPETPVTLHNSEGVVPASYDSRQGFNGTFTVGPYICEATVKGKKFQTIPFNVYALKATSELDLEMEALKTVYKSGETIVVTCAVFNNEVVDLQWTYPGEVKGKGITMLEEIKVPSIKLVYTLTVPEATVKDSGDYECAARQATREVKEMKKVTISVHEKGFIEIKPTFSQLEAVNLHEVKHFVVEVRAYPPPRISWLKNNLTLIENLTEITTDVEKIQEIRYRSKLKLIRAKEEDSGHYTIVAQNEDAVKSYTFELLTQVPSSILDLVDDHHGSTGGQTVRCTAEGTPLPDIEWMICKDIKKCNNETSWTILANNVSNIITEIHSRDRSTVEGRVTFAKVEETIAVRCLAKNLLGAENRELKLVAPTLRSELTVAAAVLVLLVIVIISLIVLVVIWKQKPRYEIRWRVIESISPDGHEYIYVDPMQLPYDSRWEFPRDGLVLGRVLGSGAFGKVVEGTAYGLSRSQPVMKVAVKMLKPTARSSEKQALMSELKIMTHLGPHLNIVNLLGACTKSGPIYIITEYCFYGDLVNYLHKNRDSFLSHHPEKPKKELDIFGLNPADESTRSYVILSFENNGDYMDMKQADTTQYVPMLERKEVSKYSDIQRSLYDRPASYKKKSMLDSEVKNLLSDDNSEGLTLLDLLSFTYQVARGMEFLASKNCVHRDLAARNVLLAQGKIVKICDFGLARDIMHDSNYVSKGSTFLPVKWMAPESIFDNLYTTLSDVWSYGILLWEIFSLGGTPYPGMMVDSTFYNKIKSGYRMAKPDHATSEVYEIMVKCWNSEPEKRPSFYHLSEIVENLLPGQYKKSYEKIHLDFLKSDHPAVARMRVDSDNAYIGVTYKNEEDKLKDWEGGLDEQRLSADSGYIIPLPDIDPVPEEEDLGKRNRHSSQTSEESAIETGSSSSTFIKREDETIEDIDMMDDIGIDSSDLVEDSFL

As for `Cc1ccc(-c2noc([C@@H]3CCN3S(=O)(=O)c3cn(C)cn3)n2)cc1NC(=O)c1cnc2ccccn12` [Compound I-184], the IC50 is ≤ 50 nM in series [1], 50 to 500 nM in series [2], 500 to 5000 nM in series [3] and 500 to 5000 nM in series [4]. In addition, in series [5], the “Solubility (μM)” value was “**** (a solubility less than or equal to 2 μM)”.

Regarding `O=C(Nc1cc(-c2noc([C@@H]3CC(F)(F)CN3)n2)ccc1Cl)c1cnc2ccccn12` [Compound I-221], the IC50 in series [6] is 50 to 500 nM; in series [1] it was ≤ 50 nM; in series [2], 50 to 500 nM; in series [3], 5000 to 30000 nM; in series [4], 50 to 500 nM. Moreover, the “Solubility (μM)” value in series [5] is “**** (a solubility less than or equal to 2 μM)”.

For the compound `COCc1ccn2c(C(=O)Nc3cc(-c4noc(C(F)(F)F)n4)ccc3C)cnc2c1` [Compound I-664], the half-inhibitory concentration (IC50) in series [6] was in the range of 50 to 500 nM; in series [7], 50 to 500 nM; in series [8], 500 to 5000 nM.

Consider `Cc1nc(-c2ccc(F)c(NC(=O)c3cnn4cc(-c5ccn(C)n5)ccc34)c2)no1` [Compound I-657], for which the IC50 in series [6] is ≤ 50 nM; in series [7] it was 50 to 500 nM; in series [8], 500 to 5000 nM.

Turning to `Cc1nc(-c2ccc(C)c(NC(=O)c3cnn4ccccc34)c2)no1` [Compound I-428], the IC50 in series [1] was ≤ 50 nM; in series [2] it was 500 to 5000 nM; in series [3] it was 500 to 5000 nM; in series [4], ≤ 50 nM.

Regarding `Cc1ccc(-c2noc([C@@H]3CC4(CC4)CN3)n2)cc1NC(=O)c1cnc2ccccn12` [Compound I-230], the IC50 in series [6] is ≤ 50 nM; in series [1] it was ≤ 50 nM; in series [2], ≤ 50 nM; in series [3] it was 50 to 500 nM; in series [4], ≤ 50 nM. The “Solubility (μM)” value in series [5] was “** (a solubility greater than 10 μM and less than or equal to 50 μM)”.

Turning to `COC(=O)N1CC(c2nc(-c3ccc(C)c(NC(=O)c4cnc5cc(OCC(C)(C)O)ccn45)c3)no2)C1` [Compound I-261], the IC50 in series [6] is ≤ 50 nM; in series [1] it was ≤ 50 nM; in series [2], ≤ 50 nM; in series [3], 50 to 500 nM; in series [4], ≤ 50 nM. The “Solubility (μM)” value in series [5] is “** (a solubility greater than 10 μM and less than or equal to 50 μM)”.

In the case of `COCc1ccn2c(C(=O)Nc3cc(-c4noc(C5CN(C(=O)OC)C5)n4)ccc3C)cnc2c1` [Compound I-140], the IC50 in series [1] was ≤ 50 nM; in series [2] it was 50 to 500 nM; in series [3] it was 5000 to 30000 nM; in series [4], 50 to 500 nM. Further, the “Solubility (μM)” value in series [5] is “*** (a solubility greater than 2 μM and less than or equal to 10 μM)”.

`Cc1ccc(-c2noc(C3CC4(C3)CC(F)(F)C4)n2)cc1NC(=O)c1cnc2ccccn12` [Compound I-266]: the IC50 was ≤ 50 nM in series [6]; ≤ 50 nM in series [1]; ≤ 50 nM in series [2]; 50 to 500 nM in series [3]; ≤ 50 nM in series [4]. The “Solubility (μM)” value in series [5] is “**** (a solubility less than or equal to 2 μM)”.

Take `Cc1ccc(-c2noc(C3CC3(C)C)n2)cc1NC(=O)c1cnc2ccccn12` (centres unmarked) [Compound I-127]: the IC50 in series [1] was ≤ 50 nM; in series [2], ≤ 50 nM; in series [3] it was 50 to 500 nM; in series [4], ≤ 50 nM.

Consider `COCc1ccn2c(C(=O)Nc3cc(-c4noc(C)n4)ccc3F)cnc2c1` [Compound I-658], for which the values for the IC50 in series [6], in series [7] and in series [8] were 500 to 5000 nM, 500 to 5000 nM and 5000 to 30000 nM, respectively.

On to `CCCS(=O)(=O)N1CCC1c1nc(-c2ccc(C)c(NC(=O)c3cnc4ccccn34)c2)no1` (centres unmarked) [Compound I-242], for which the values for the IC50 in series [6], in series [1] and in series [4] were ≤ 50 nM, ≤ 50 nM and 50 to 500 nM, respectively. Further, the “Solubility (μM)” value in series [5] was “*** (a solubility greater than 2 μM and less than or equal to 10 μM)”.

As to `COC(=O)N1CC(c2nc(-c3ccc(C#N)c(NC(=O)c4cnc5ccccn45)c3)no2)C1` [Compound I-212], the 50% inhibitory concentration (IC50) in series [6], in series [1] and in series [4] was 50 to 500 nM throughout. Besides, in series [5], the “Solubility (μM)” value was “*** (a solubility greater than 2 μM and less than or equal to 10 μM)”.

For `Cc1nc(-c2ccc(C)c(NC(=O)c3cnc4cc(OCCCN(C(=O)OC(C)(C)C)C5COC5)ccn34)c2)no1` [Compound I-660], the IC50 in series [6] is ≤ 50 nM; in series [7], 50 to 500 nM; in series [8], 500 to 5000 nM.

With `Cc1ccc(-c2noc(N3CCC(F)(F)CC3)n2)cc1NC(=O)c1cnc2ccccn12` [Compound I-214], the results for the IC50 in series [6], in series [1] and in series [4] were 50 to 500 nM, ≤ 50 nM and 50 to 500 nM, respectively. Also, in series [5], the “Solubility (μM)” value was “*** (a solubility greater than 2 μM and less than or equal to 10 μM)”.

As to `Cc1ccc(-c2noc([C@@H]3CCN3S(=O)(=O)c3cccnc3)n2)cc1NC(=O)c1cnc2ccccn12` [Compound I-185], the IC50 in series [1] is ≤ 50 nM; in series [2], ≤ 50 nM; in series [3], 50 to 500 nM; in series [4], ≤ 50 nM. For the same compound, the “Solubility (μM)” value in series [5] was “**** (a solubility less than or equal to 2 μM)”.
